Measured values published in patent publication US8192962B2, “Processes for detecting toxic substances” (Daikin Industries, Ltd., priority 2001, dated 2012).

Test system: Mitochondria-located protein genes
Test: DNA chip mRNA expression in yeast, mitochondria-located protein genes (Table 2)
Type: cell-based, Saccharomyces cerevisiae S288C
Settings: cells incubated two hours with the chemical substance
Procedure, shortened: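 S. cerevisiae S288C grown at 25° C in YPD were exposed in log phase for two hours to one toxic chemical at a growth-inhibiting, non-lethal concentration; untreated cells served as control. Poly(A) mRNA was reverse-transcribed with Cy3/Cy5-dUTP and hybridized to a whole-genome yeast DNA chip at 65° C for over 12 hours; values are fluorescence ratios versus untreated.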

`S=C([S-])NCCNC(=S)[S-].[Zn+2]` [(11), zinc N,N′-ethylenebis(dithiocarbamate)] was tested, and the “The level of expressed mRNA in the presence of chemical substance/The level of expressed mRNA in the absence of chemical substance” value (yeast gene YAL039C) was 1.1, the “The level of expressed mRNA in the presence of chemical substance/The level of expressed mRNA in the absence of chemical substance” value (yeast gene YBL022C) was 1.1 and the “The level of expressed mRNA in the presence of chemical substance/The level of expressed mRNA in the absence of chemical substance” value (yeast gene YBL030C) was 1.1. For the same compound, the “The level of expressed mRNA in the presence of chemical substance/The level of expressed mRNA in the absence of chemical substance” value (yeast gene YBL038W) was 0.7, the “The level of expressed mRNA in the presence of chemical substance/The level of expressed mRNA in the absence of chemical substance” value (yeast gene YBL099W) was 2.1 and the “The level of expressed mRNA in the presence of chemical substance/The level of expressed mRNA in the absence of chemical substance” value (yeast gene YBR003W) was 1.3. For the same compound, the “The level of expressed mRNA in the presence of chemical substance/The level of expressed mRNA in the absence of chemical substance” value (yeast gene YBR044C) was 1.1, the “The level of expressed mRNA in the presence of chemical substance/The level of expressed mRNA in the absence of chemical substance” value (yeast gene YBR091C) was 0.7 and the “The level of expressed mRNA in the presence of chemical substance/The level of expressed mRNA in the absence of chemical substance” value (yeast gene YBR122C) was 1.2. The “The level of expressed mRNA in the presence of chemical substance/The level of expressed mRNA in the absence of chemical substance” value (yeast gene YBR185C) was 1.2, the “The level of expressed mRNA in the presence of chemical substance/The level of expressed mRNA in the absence of chemical substance” value (yeast gene YBR221C) was 1.2 and the “The level of expressed mRNA in the presence of chemical substance/The level of expressed mRNA in the absence of chemical substance” value (yeast gene YBR251W) was 1.5. The “The level of expressed mRNA in the presence of chemical substance/The level of expressed mRNA in the absence of chemical substance” value (yeast gene YBR282W) was 0.9, the “The level of expressed mRNA in the presence of chemical substance/The level of expressed mRNA in the absence of chemical substance” value (yeast gene YCL057W) was 1.6 and the “The level of expressed mRNA in the presence of chemical substance/The level of expressed mRNA in the absence of chemical substance” value (yeast gene YCR046C) was 1.5. For the same compound, the “The level of expressed mRNA in the presence of chemical substance/The level of expressed mRNA in the absence of chemical substance” value (yeast gene YCR083W) was 1.8, the “The level of expressed mRNA in the presence of chemical substance/The level of expressed mRNA in the absence of chemical substance” value (yeast gene YDL067C) was 1.4 and the “The level of expressed mRNA in the presence of chemical substance/The level of expressed mRNA in the absence of chemical substance” value (yeast gene YDL181W) was 0.8. The “The level of expressed mRNA in the presence of chemical substance/The level of expressed mRNA in the absence of chemical substance” value (yeast gene YDL198C) was 2.5, the “The level of expressed mRNA in the presence of chemical substance/The level of expressed mRNA in the absence of chemical substance” value (yeast gene YDR079W) was 1.3 and the “The level of expressed mRNA in the presence of chemical substance/The level of expressed mRNA in the absence of chemical substance” value (yeast gene YDR178W) was 2.0. For the same compound, the “The level of expressed mRNA in the presence of chemical substance/The level of expressed mRNA in the absence of chemical substance” value (yeast gene YDR231C) was 1.3, the “The level of expressed mRNA in the presence of chemical substance/The level of expressed mRNA in the absence of chemical substance” value (yeast gene YDR258C) was 1.7 and the “The level of expressed mRNA in the presence of chemical substance/The level of expressed mRNA in the absence of chemical substance” value (yeast gene YDR298C) was 1.2. The “The level of expressed mRNA in the presence of chemical substance/The level of expressed mRNA in the absence of chemical substance” value (yeast gene YDR347W) was 0.8, the “The level of expressed mRNA in the presence of chemical substance/The level of expressed mRNA in the absence of chemical substance” value (yeast gene YDR377W) was 1.4 and the “The level of expressed mRNA in the presence of chemical substance/The level of expressed mRNA in the absence of chemical substance” value (yeast gene YDR529C) was 0.8. For the same compound, the “The level of expressed mRNA in the presence of chemical substance/The level of expressed mRNA in the absence of chemical substance” value (yeast gene YEL024W) was 0.9, the “The level of expressed mRNA in the presence of chemical substance/The level of expressed mRNA in the absence of chemical substance” value (yeast gene YEL039C) was 1.7 and the “The level of expressed mRNA in the presence of chemical substance/The level of expressed mRNA in the absence of chemical substance” value (yeast gene YER178W) was 2.5. For the same compound, the “The level of expressed mRNA in the presence of chemical substance/The level of expressed mRNA in the absence of chemical substance” value (yeast gene YFL016C) was 1.2, the “The level of expressed mRNA in the presence of chemical substance/The level of expressed mRNA in the absence of chemical substance” value (yeast gene YGL018C) was 1.1 and the “The level of expressed mRNA in the presence of chemical substance/The level of expressed mRNA in the absence of chemical substance” value (yeast gene YGL187C) was 0.7. The “The level of expressed mRNA in the presence of chemical substance/The level of expressed mRNA in the absence of chemical substance” value (yeast gene YGL191W) was 1.6, the “The level of expressed mRNA in the presence of chemical substance/The level of expressed mRNA in the absence of chemical substance” value (yeast gene YGR008C) was 2.6 and the “The level of expressed mRNA in the presence of chemical substance/The level of expressed mRNA in the absence of chemical substance” value (yeast gene YGR028W) was 1.1. The “The level of expressed mRNA in the presence of chemical substance/The level of expressed mRNA in the absence of chemical substance” value (yeast gene YGR062C) was 1.6, the “The level of expressed mRNA in the presence of chemical substance/The level of expressed mRNA in the absence of chemical substance” value (yeast gene YGR076C) was 1.7 and the “The level of expressed mRNA in the presence of chemical substance/The level of expressed mRNA in the absence of chemical substance” value (yeast gene YGR082W) was 1.3. The “The level of expressed mRNA in the presence of chemical substance/The level of expressed mRNA in the absence of chemical substance” value (yeast gene YGR174C) was 1.3, the “The level of expressed mRNA in the presence of chemical substance/The level of expressed mRNA in the absence of chemical substance” value (yeast gene YGR244C) was 1.8 and the “The level of expressed mRNA in the presence of chemical substance/The level of expressed mRNA in the absence of chemical substance” value (yeast gene YHR008C) was 2.1. For the same compound, the “The level of expressed mRNA in the presence of chemical substance/The level of expressed mRNA in the absence of chemical substance” value (yeast gene YIL155C) was 1.3, the “The level of expressed mRNA in the presence of chemical substance/The level of expressed mRNA in the absence of chemical substance” value (yeast gene YJL096W) was 1.2 and the “The level of expressed mRNA in the presence of chemical substance/The level of expressed mRNA in the absence of chemical substance” value (yeast gene YJL102W) was 0.7. The “The level of expressed mRNA in the presence of chemical substance/The level of expressed mRNA in the absence of chemical substance” value (yeast gene YJL133W) was 1.2, the “The level of expressed mRNA in the presence of chemical substance/The level of expressed mRNA in the absence of chemical substance” value (yeast gene YJL166W) was 1.4 and the “The level of expressed mRNA in the presence of chemical substance/The level of expressed mRNA in the absence of chemical substance” value (yeast gene YJL180C) was 1.4. For the same compound, the “The level of expressed mRNA in the presence of chemical substance/The level of expressed mRNA in the absence of chemical substance” value (yeast gene YJR045C) was 1.4 and the “The level of expressed mRNA in the presence of chemical substance/The level of expressed mRNA in the absence of chemical substance” value (yeast gene YJR077C) was 1.6.
